Test results reported in patent US10375956B2, “Herbicidally active 2-(substituted-phenyl)-cyclopentane-1,3-dione compounds and derivatives thereof” (Syngenta Limited, priority 2013, dated 2019).
Like-named read-outs stand apart in the source and are kept apart here.

Tests used:
Assay type in all cases: in vivo
[1] = test system: Alopecurus myosuroides (ALOMY); assay: Test 1 glasshouse assay, post-emergence herbicidal activity; conditions: 312 h, after 13 days, read-out: Percentage phytotoxicity ALOMY
Summary of the method: (§1)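 Plants sprayed 8 days after sowing with active ingredient in acetone/water (50:50) containing 0.5% Tween 20, grown in glasshouse at 24/16°C day/night, 14 h light, 65% humidity. Phytotoxicity scored visually after 13 days as percentage damage (100% = total damage; 0% = none).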

[2] = test system: Echinochloa crus-galli (ECHCG); assay: as above; conditions: 312 h, after 13 days, read-out: Percentage phytotoxicity ECHCG
Summary of the method: as §1

[3] = test system: Beta vulgaris (BEAVA, sugarbeet); assay: Test 2 glasshouse assay (IF50 formulation, X-77), post-emergence herbicidal activity; conditions: 360 h, 15 DAA, visual score, read-out: Post-emergence herbicidal activity (percentage phytotoxicity) BEAVA; for plant injury at 30 g/ha: application rate 30 g/ha; for plant injury at 125 g/ha: application rate 125 g/ha; for plant injury at 250 g/ha: application rate 250 g/ha
Method: (§2) Seeds of a variety of monocotyledonous and dicotyledonous test plants are sown in standard soil in pots. The plants are cultivated for one day (for pre-emergence) or for about 12 days (for post-emergence) under controlled conditions in a glasshouse (warm climate species at 24/18° C., cool climate species at 20/16° C., both at day/night; 16 hours light; 65% humidity).
(§3) An “instant formulation”, known as the “IF50”, containing 50 g/liter (i.e. 5% w/v) of the “technical” (i.e. unformulated) active ingredient is prepared by dissolving the active ingredient in a mixture of organic solvents and emulsifier, details of which are provided in the Table below. This IF50 is then mixed with a small, variable amount of acetone to aid dissolution, before addition of a 0.2% v/v aqueous solution of the adjuvant X-77 (which is a mixture of alkyl aryl polyoxyethylene glycols and free fatty acids in isopropanol, CAS Registry number 11097-66-8), as the aqueous diluent, to form an aqueous spray solution which contains a predetermined concentration of the active ingredient (which varies depending on the application rate of the active ingredient to the plants) and 0.2% v/v of the adjuvant X-77. This aqueous spray solution is then sprayed onto the plants, after one day's cultivation (for pre-emergence), or after about 12 days' cultivation (range=10-13 days) (for post-emergence).
(§4) The test plants are then grown on, in a glasshouse (greenhouse) under controlled conditions (warm climate species at 24/18° C., cool climate species at 20/16° C., both at day/night; 16 hours light; 65% humidity) and are watered twice daily. 15 days after application of the test herbicide (15DAA) (for post-emergence), and 20 days after application of the test herbicide (20DAA) (for pre-emergence), the test plants are evaluated visually, and an assessed percentage phytotoxicity score is given for each herbicidal application on each plant species (with 100%=total damage to plant; 0%=no damage to plant).
(§5) Cool climate crop plants: Triticum aestivum (TRZAW, winter wheat), Brassica napus (BRSNN, rape, also called oilseed rape or rapeseed), Beta vulgaris (BEAVA, sugarbeet). Warm climate crop plants: Glycine max (GLXMA, soybean).

[4] = test system: Brassica napus (BRSNN, rape); assay: as above; conditions: 360 h, 15 DAA, visual score, read-out: Post-emergence herbicidal activity (percentage phytotoxicity) BRSNN; for plant injury at 30 g/ha: application rate 30 g/ha; for plant injury at 125 g/ha: application rate 125 g/ha; for plant injury at 250 g/ha: application rate 250 g/ha
Method: as §2, §3, §4, §5

[5] = test system: Glycine max (GLXMA, soybean); assay: as above; conditions: 360 h, 15 DAA, visual score, read-out: Post-emergence herbicidal activity (percentage phytotoxicity) GLXMA; for plant injury at 30 g/ha: application rate 30 g/ha; for plant injury at 125 g/ha: application rate 125 g/ha; for plant injury at 250 g/ha: application rate 250 g/ha
Method: as §2, §3, §4, §5

[6] = test system: Brachiaria plantaginea (BRAPL); assay: as above; conditions: Urochloa plantaginea, 360 h, 15 DAA, visual score, read-out: Post-emergence herbicidal activity (percentage phytotoxicity) BRAPL; for pest or weed control at 30 g/ha: application rate 30 g/ha; for pest or weed control at 125 g/ha: application rate 125 g/ha
Method: as §2, §3, §4
(§6) Warm climate (“warm season”) grassy monocotyledonous weeds: Setaria faberi (SETFA), Panicum miliaceum (PANMI), Sorghum vulgare Pers. (SORVU) (or Sorghum bicolor (L) Moench ssp. Bicolor), Digitaria sanguinalis (DIGSA), Echinochloa crus-galli (ECHCG), and Brachiaria plantaginea (BRAPL).

[7] = test system: Digitaria sanguinalis (DIGSA); assay: as above; conditions: 360 h, 15 DAA, visual score, read-out: Post-emergence herbicidal activity (percentage phytotoxicity) DIGSA; for pest or weed control at 30 g/ha: application rate 30 g/ha; for pest or weed control at 125 g/ha: application rate 125 g/ha; for pest or weed control at 250 g/ha: application rate 250 g/ha
Method: as §2, §3, §4, §6

[8] = test system: Echinochloa crus-galli (ECHCG); assay: as above; conditions: 360 h, 15 DAA, visual score, read-out: Post-emergence herbicidal activity (percentage phytotoxicity) ECHCG; for pest or weed control at 30 g/ha: application rate 30 g/ha; for pest or weed control at 125 g/ha: application rate 125 g/ha; for pest or weed control at 250 g/ha: application rate 250 g/ha
Method: as §2, §3, §4, §6

[9] = test system: Panicum miliaceum (PANMI); assay: as above; conditions: 360 h, 15 DAA, visual score, read-out: Post-emergence herbicidal activity (percentage phytotoxicity) PANMI; for pest or weed control at 30 g/ha: application rate 30 g/ha; for pest or weed control at 125 g/ha: application rate 125 g/ha; for pest or weed control at 250 g/ha: application rate 250 g/ha
Method: as §2, §3, §4, §6

[10] = test system: Setaria faberi (SETFA); assay: as above; conditions: 360 h, 15 DAA, visual score, read-out: Post-emergence herbicidal activity (percentage phytotoxicity) SETFA; for pest or weed control at 30 g/ha: application rate 30 g/ha; for pest or weed control at 125 g/ha: application rate 125 g/ha; for pest or weed control at 250 g/ha: application rate 250 g/ha
Method: as §2, §3, §4, §6

[11] = test system: Sorghum vulgare Pers. (SORVU); assay: as above; conditions: Sorghum bicolor, 360 h, 15 DAA, visual score, read-out: Post-emergence herbicidal activity (percentage phytotoxicity) SORVU; for pest or weed control at 30 g/ha: application rate 30 g/ha; for pest or weed control at 125 g/ha: application rate 125 g/ha; for pest or weed control at 250 g/ha: application rate 250 g/ha
Method: as §2, §3, §4, §6

[12] = post-emergence (Example 1B Table 1)
[13] = post-emergence (Example 1B Table 2)

| Structure (SMILES) | pest or weed control at 30 g/ha [1, 12] [%] | pest or weed control at 250 g/ha [1, 12] [%] | pest or weed control at 62.5 g/ha [1, 13] [%] | pest or weed control at 250 g/ha [1, 13] [%] | pest or weed control at 30 g/ha [2, 12] [%] | pest or weed control at 250 g/ha [2, 12] [%] | pest or weed control at 62.5 g/ha [2, 13] [%] | pest or weed control at 250 g/ha [2, 13] [%] | plant injury at 30 g/ha [3] [%] | plant injury at 125 g/ha [3] [%] | plant injury at 30 g/ha [4] [%] | plant injury at 125 g/ha [4] [%] | plant injury at 30 g/ha [5] [%] | plant injury at 125 g/ha [5] [%] | pest or weed control at 30 g/ha [6] [%] | pest or weed control at 125 g/ha [7] [%] | pest or weed control at 125 g/ha [8] [%] | pest or weed control at 125 g/ha [9] [%] | pest or weed control at 125 g/ha [10] [%] | pest or weed control at 125 g/ha [11] [%] | also measured |
| --- | --- | --- | --- | --- | --- | --- | --- | --- | --- | --- | --- | --- | --- | --- | --- | --- | --- | --- | --- | --- | --- |
| C#CCC1CC(=O)C(c2c(Cl)cc(-c3ccc(F)cc3F)cc2OC)C1=O (centres unmarked) [Compound A12] | 80 | 100 | 60 | 100 | 100 | 100 | 100 | 100 | 40 | 40 | 50 | 60 | 0 | 0 | 70 | 100 | 100 | 100 | 100 | 100 | pest or weed control at 125 g/ha [6]: 100%; pest or weed control at 30 g/ha [7]: 70%; pest or weed control at 30 g/ha [8]: 70%; pest or weed control at 30 g/ha [9]: 70%; pest or weed control at 30 g/ha [10]: 20%; pest or weed control at 30 g/ha [11]: 90% |
| C#CCC1CC(=O)C(c2c(Cl)cc(-c3ccc(F)c(F)c3)cc2OC)C1=O (centres unmarked) [Compound A13] | 90 | 100 | 100 | 100 | 100 | 100 | 100 | 100 | 60 | 70 | 70 | 80 | 20 | 30 | 90 | 100 | 100 | 100 | 100 | 100 | pest or weed control at 125 g/ha [6]: 100%; pest or weed control at 30 g/ha [7]: 100%; pest or weed control at 30 g/ha [8]: 100%; pest or weed control at 30 g/ha [9]: 100%; pest or weed control at 30 g/ha [10]: 100%; pest or weed control at 30 g/ha [11]: 100% |
| C#CCC1CC(=O)C(c2c(F)cc(-c3ccc(Cl)cc3)cc2Cl)C1=O (centres unmarked) [Compound A6, 2-[2-chloro-4-(4-chlorophenyl)-6-fluorophenyl]-4-prop-2-ynylcyclopentane-1,3-dione] | 80 | 100 | – | 100 | 100 | 100 | – | 100 | – | 20 | – | 20 | – | 10 | – | 100 | 100 | 100 | 100 | 100 | plant injury at 250 g/ha [3]: 40%; plant injury at 250 g/ha [4]: 40%; plant injury at 250 g/ha [5]: 10%; pest or weed control at 250 g/ha [7]: 100%; pest or weed control at 250 g/ha [8]: 100%; pest or weed control at 250 g/ha [9]: 100%; pest or weed control at 250 g/ha [10]: 100%; pest or weed control at 250 g/ha [11]: 100% |
| C#CCC1CC(=O)C(c2cc(-c3ncc(Cl)cc3F)ccc2C)C1=O (centres unmarked) [Compound A18] | 10 | 70 | – | – | 60 | 80 | – | – | – | – | – | – | – | – | – | – | – | – | – | – | plant injury at 250 g/ha [3]: 50%; plant injury at 250 g/ha [4]: 20%; plant injury at 250 g/ha [5]: 40%; pest or weed control at 250 g/ha [7]: 50%; pest or weed control at 250 g/ha [8]: 90%; pest or weed control at 250 g/ha [9]: 60%; pest or weed control at 250 g/ha [10]: 70%; pest or weed control at 250 g/ha [11]: 70% |
| C#CCC1CC(=O)C(c2c(C)cc(C)cc2C)C1=O (centres unmarked) [Compound A23] | – | – | 90 | 100 | – | – | 100 | 100 | – | 30 | – | 70 | – | 0 | – | 100 | 100 | 100 | 80 | 90 | – |
